34 compounds from patent publication US20120010177A1, “MicroRNA Modulators and Method for Identifying And Using The Same” (The Wistar Institute / North Carolina State University, priority 2008, published 2012) can be followed below.

In one assay the test system is miR-21. Nature of the assay: High throughput primary miR-21 FLuc reporter assay (concentration-response). It counts as cell-based, human. Particulars: Homo sapiens. Summed up:
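HeLa cells carrying a Luc-miR-21 firefly luciferase reporter were treated with compound for 48 h. miR-21 inhibition was read as increased luciferase signal. Concentration-response data were fitted with a four-parameter logistic model.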
Regarding `CC(=O)COc1ccc2c3c(c(=O)oc2c1C)CCCCC3` [Compound 261], the activity was half-maximal at 3.29 µM (AC50).
On the same count and under the same terms, the same measure for `COc1ccc(-c2c/c(=N\CC(=O)O)c3ccccc3o2)cc1.[O-][Cl+3]([O-])([O-])O` [Compound 263]: 3.69 µM.

Still in this assay, the particulars now being: Homo sapiens, HeLa, 48 h, HeLa Luc-miR-21 reporter, 48-hour incubation; read-out: AC50.
With `Clc1ccc(-n2ncc3c(NCc4ccccn4)ncnc32)cc1` [Compound 245], the AC50 amounted to 5.85 µM.
Still for that read-out and setting: the same measure for `CCCNc1ncnc2c1cnn2-c1ccc(OC)cc1` [Compound 246]: 0.29 µM; for `COc1ccc(-n2ncc3c(NCCCn4ccnc4)ncnc32)cc1` [Compound 247]: 10.4 µM.
Same read-out and setting: the same measure for `CCCNc1nc(C)nc2c1cnn2CCc1ccccc1` [Compound 248]: 14.7 µM.

Still in this assay, the particulars now being: Homo sapiens, Table 12 singletons; read-out: AC50.
Consider `O=C(CCS(=O)(=O)c1ccccc1)Nc1ccc(-c2nc3ccccc3s2)cc1` [Compound 249], for which the AC50 turned out to be 0.26 µM.
In the case of `Cc1c(-c2nc(-c3ccc(C(F)(F)F)cc3)no2)n(C)oc1=O` [Compound 250], the AC50 came to 0.29 µM.
As to `CCC(C)NC(=O)CCCn1c(=O)c2cccn2c2ccccc21` (stereo not shown) [Compound 251], the AC50 stood at 0.93 µM.
On the same count and under the same terms, the same measure for `Cn1c(=O)[nH]c2cc(-c3noc(-c4ccc(F)cc4)n3)ccc21` [Compound 252]: 1.31 µM; for `CC(C)(C)NS(=O)(=O)c1cccc(S(=O)(=O)c2cccc(S(=O)(=O)NC(C)(C)C)c2)c1` [Compound 253]: 1.65 µM.
With `CC(=O)N1CCN(c2nc3c(F)cc(F)cc3s2)CC1` [Compound 254], the AC50 was determined as 1.85 µM.
As to `COc1ccc(NCc2cccn2-c2nnc(N3CCC(C)CC3)s2)c(OC)c1` [Compound 255], the AC50 was 1.85 µM.
For the compound `COc1ccc(-c2nc3c(Br)c(N)c(Br)cc3o2)cc1` [Compound 256], the AC50 was determined as 2.07 µM.
On the same count and under the same terms, the same measure for `c1ccc(-c2onc3cc4c(cc23)OCCO4)cc1` [Compound 257]: 2.07 µM; for `Cc1ccc(-c2nc3ccccc3o2)cc1NC(=S)NC(=O)c1cc2ccccc2o1` [Compound 258]: 2.93 µM.
The same measure, in the same setting: the same measure for `COc1ccc(-c2csc(NC(=O)COC(=O)c3ccc(Br)o3)n2)cc1` [Compound 259]: 2.93 µM; for `O=S(=O)(c1ccc(F)cc1)n1ccc(-c2cnc(-c3ccccc3)s2)n1` [Compound 260]: 2.93 µM.
Same read-out and setting: the same measure for `Nc1c(-c2ccccc2)n[nH]c1-c1ccccc1` [Compound 262]: 3.29 µM; for `Cc1ccc2[nH]c3c(S)ncnc3c2c1` [Compound 264]: 3.69 µM.
In the case of `c1ccc(C2=Nn3c(nnc3-c3cc(-c4ccccc4)[nH]n3)SC2)cc1` [Compound 265], the AC50 worked out at 3.69 µM.
Same read-out and setting: the same measure for `Nc1c(Cl)cc2c(c1Oc1ccccc1)C(=O)c1ccccc1C2=O` [Compound 266]: 4.14 µM; for `O=C1C(Nc2ccccc2)=C2CCCC=C2N1c1ccccc1` [Compound 267]: 4.14 µM; for `Fc1cccc(/C=N/N=C(\S)Nc2ccccc2Cl)c1` [Compound 268]: 4.65 µM.
As to `O=S(=O)(c1cccc2nsnc12)N1CCc2ccccc21` [Compound 269], the AC50 stood at 4.65 µM.
With `COCCC/N=C(\S)N/N=C/c1ccc(N(C)C)cc1Cl` [Compound 270], the concentration at half-maximal activity (AC50) amounted to 5.85 µM.
With `O=C(Nc1ccccc1)c1cc2n(n1)C(C(F)(F)F)CC(C1CC1)N2` (stereo not shown) [Compound 272], the AC50 was determined as 6.56 µM.
With `COC(=O)c1ccc(Cn2nnc3sc4c(c3c2=O)CCCC4)cc1` [Compound 273], the AC50 worked out at 6.56 µM.
Take `NC(=O)COC(=O)c1ccc2noc(-c3ccccc3)c2c1` [Compound 274]: the AC50 is 6.56 µM.
In the case of `N#CC1=C(SCC(=O)Nc2ccccc2)NC(=O)CC1c1ccc(O)cc1` (stereo not shown) [Compound 275], the AC50 was 6.56 µM.
As for `Oc1csc(Cc2nc(-c3ccccc3F)cs2)n1` [Compound 276], the AC50 amounted to 6.56 µM.
As for `CSc1ccc(-c2cccc([N+](=O)[O-])c2)nn1` [Compound 277], the AC50 worked out at 6.56 µM.
The same measure, in the same setting: the same measure for `COc1ccc(C2CC(C)(c3ccc(OC)cc3)Nc3ccccc3N2)cc1` (stereo not shown) [Compound 278]: 7.36 µM; for `COc1cc(O)sc1/C=N/c1ccc(Cl)cc1` [Compound 279]: 7.36 µM.
